From publication PMC8113758, “Functional Characterization of Sex Pheromone Neurons and Receptors in the Armyworm, Mythimna separata (Walker)” (Frontiers in Neuroanatomy, 2021)

How the values were obtained:
Test in all cases: two-electrode voltage clamp, Xenopus oocytes, dose-response
Type in all cases: cell-based, Mythimna separata
MsepPR1 = test system: T1, MsepPR1
T1 construct: full-length; with MsepOrco

MsepPR5 = test system: T2, MsepPR5
T2 construct: full-length; with MsepOrco

MsepPR6 = test system: T3, MsepPR6
T3 construct: full-length; with MsepOrco

SMILES: CCCC/C=C\CCCCCCCC=O [Z9–14:Ald, (Z)-9-tetradecenal]
- EC50 (MsepPR1): 49 µM
- EC50 (MsepPR5): 30.4 µM

SMILES: CCCC/C=C\CCCCCCCCOC(C)=O [Z9–14:OAc, (Z)-9-tetradecen-1-yl acetate]
- EC50 (MsepPR6): 0.746 µM
